Measurements taken from ChEMBL document CHEMBL1150204, “Cystodytins D-I, new cytotoxic tetracyclic aromatic alkaloids from the Okinawan marine tunicate Cystodytes dellechiajei” (J Nat Prod, 1991).
Converted amounts (≈) assume the structure as drawn.

Experiments:
[1] = system: L1210; experiment: Cytotoxicity against mouse L1210 cells; assay type: functional, cell-based
[2] = system: KB; experiment: Cytotoxicity against human KB cells; assay type: functional, cell-based

| SMILES | IC50 [1] [µg/mL] | IC50 [2] [µg/mL] |
| --- | --- | --- |
| CC(C)=CC(=O)NCC(O)C1=CC(=O)c2nccc3c2c1nc1ccccc13 (configuration not stated) [CYSTODYTIN D] | 1.1 (≈ 2.95 µM) | 1.4 (≈ 3.75 µM) |
| C/C=C(\C)C(=O)NCC(O)C1=CC(=O)c2nccc3c2c1nc1ccccc13 (configuration not stated) [CYSTODYTIN E] | 1.1 (≈ 2.95 µM) | 1.4 (≈ 3.75 µM) |
| COC(CNC(=O)C=C(C)C)C1=CC(=O)c2nccc3c2c1nc1ccccc13 (configuration not stated) [CYSTODYTIN F] | 0.068 (≈ 0.176 µM) | 0.078 (≈ 0.201 µM) |
| C/C=C(\C)C(=O)NCC(OC)C1=CC(=O)c2nccc3c2c1nc1ccccc13 (configuration not stated) [CYSTODYTIN G] | 0.068 (≈ 0.176 µM) | 0.078 (≈ 0.201 µM) |
| CCCCCCCC/C=C/CCCCCCCC(=O)OC(CNC(=O)C=C(C)C)C1=CC(=O)c2nccc3c2c1nc1ccccc13 (configuration not stated) [CYSTODYTIN H] | 0.08 (≈ 0.125 µM) | 0.092 (≈ 0.144 µM) |
| C/C=C(\C)C(=O)NCC(OC(=O)CCCCCCC/C=C/CCCCCCCC)C1=CC(=O)c2nccc3c2c1nc1ccccc13 (configuration not stated) [CYSTODYTIN I] | 0.08 (≈ 0.125 µM) | 0.092 (≈ 0.144 µM) |
